{"source": "paper PMC7774088", "about": "(ACS Omega, 2020)", "key": {"Stp1 [1]": {"target": "T1, Stp1 (Staphylococcus aureus, UniProt A0A0H2XF73)", "T1 sequence (A0A0H2XF73 1-247)": "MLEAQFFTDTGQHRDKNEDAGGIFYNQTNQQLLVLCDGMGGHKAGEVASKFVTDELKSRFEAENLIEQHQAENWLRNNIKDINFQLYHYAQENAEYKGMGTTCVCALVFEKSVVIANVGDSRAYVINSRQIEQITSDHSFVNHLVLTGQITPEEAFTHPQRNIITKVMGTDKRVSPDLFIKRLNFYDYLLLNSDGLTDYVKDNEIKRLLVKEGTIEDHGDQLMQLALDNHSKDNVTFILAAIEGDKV", "assay": "fluorescence quenching", "format": "binding"}, "Stp1 [2]": {"target": "Stp1 (Staphylococcus aureus, UniProt A0A0H2XF73, I164A)", "assay": "biochemical"}, "Stp1 [3]": {"target": "Stp1 (Staphylococcus aureus, UniProt A0A0H2XF73, P152A)", "assay": "biochemical"}, "Stp1 [4]": {"target": "Stp1 (Staphylococcus aureus, UniProt A0A0H2XF73, Y199A)", "assay": "biochemical"}, "Stp1 [5]": {"target": "T1, Stp1", "assay": "pNPP phosphatase assay, absorbance […] nm", "format": "biochemical", "details": "read-out: % inhibition at 32 μg/mL"}, "Stp1 [6]": {"target": "Stp1 (Staphylococcus aureus, UniProt A0A0H2XF73, F179A)", "assay": "biochemical"}}}
{"smiles": "O=C(O[C@@H]1O[C@@H]2COC(=O)c3cc(O)c(O)c(O)c3-c3c(cc(O)c(O)c3O)C(=O)O[C@H]([C@H]1O)[C@@H]2O)c1cc(O)c(O)c(O)c1", "note": "[corilagin]", "values": [{"measurement": "Kd", "setting": "Stp1 [1]", "result": 1940, "unit": "nM"}, {"measurement": "Kd", "setting": "Stp1 [2]", "result": 8850, "unit": "nM"}, {"measurement": "Kd", "setting": "Stp1 [3]", "result": 7250, "unit": "nM"}, {"measurement": "Kd", "setting": "Stp1 [4]", "result": 2870, "unit": "nM"}, {"measurement": "inhibition at 32 µg/mL", "setting": "Stp1 [5]", "result": "> 90", "unit": "%"}, {"measurement": "Kd", "setting": "Stp1 [6]", "result": 2560, "unit": "nM"}]}
